# Read-outs that look alike come from different tables or passages of the source.
# Columns and labels:
# [1] = system: Staphylococcus pyrogens IID S-23; experiment: MIC by serial dilution method on agar plate; type: cell-based
# Excerpt: (§1) The microorganisms were used in a concentration of 1×10^8 cells/ml (O.D. 660 mμ, 0.07-0.16) and 1×10^6 cells/ml (100 folds dilution).
# [2] = system: Staphylococcus aureus FDA 209P; experiment: MIC by serial dilution method on agar plate; type: cell-based
# Excerpt: as §1
# [3] = system: Proteus inconstans IFO 12930; experiment: MIC by serial dilution method on agar plate; type: cell-based
# Excerpt: (§2) Chemotherapy, 22, 1126-1128 (1974)]. The microorganisms were used in a concentration of 1×10^8 cells/ml (O.D. 660 mμ, 0.07-0.16) and 1×10^6 cells/ml (100 folds dilution).
# [4] = system: Pseudomonas aeruginosa E-2; experiment: MIC by serial dilution method on agar plate; type: cell-based
# Excerpt: as §2
# [5] = system: Acinetobacter calcoaceticus AC-54; experiment: MIC by serial dilution method on agar plate; type: cell-based
# Excerpt: as §2
# [6] = system: Serratia marcescens IFO 12648; experiment: MIC by serial dilution method on agar plate; type: cell-based
# Excerpt: as §2
# [7] = system: Bacillus subtilis ATCC 6633; experiment: MIC by serial dilution method on agar plate; type: cell-based
# Excerpt: as §2
# [8] = system: Klebsiella pneumoniae NCTC 9632; experiment: MIC by serial dilution method on agar plate; type: cell-based
# Excerpt: as §2
# Escherichia coli No. 29 = experiment: MIC by serial dilution method on agar plate; type: cell-based
# Excerpt: as §2
# [9] = system: Pseudomonas aeruginosa ATCC 10145; experiment: MIC by serial dilution method on agar plate; type: cell-based
# Excerpt: as §2
# [10] = system: Streptococcus faecalis IFO 12580; experiment: MIC by serial dilution method on agar plate; type: cell-based
# Excerpt: as §2
# [11] = system: Escherichia coli NIHJ JC-2; experiment: MIC by serial dilution method on agar plate; type: cell-based
# Excerpt: as §2
# [12] = system: Proteus morganii IID Kono; experiment: MIC by serial dilution method on agar plate; type: cell-based
# Excerpt: as §2
# [13] = Absorption by oral administration in monkey (plasma concentration, thin layer cup bio-assay); type: in vivo; settings: 10 mg/kg;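 also: plasma concentration in γ/ml (µg/mL) rather than the printed ng/mL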
# Experimental: The test compounds were dissolved in 0.1N hydrochloric acid or suspended in 0.5% sodium carboxymethyl cellulose solution. The solution or suspension was administered into stomach of monkey (two monkeys) with cathetel. After the administration of test compounds, the blood was collected from the lower limbs vein at a fixed interval with a syringe treated with heparin. The collected blood was centrifuged at 3,000 r.p.m. for 10 minutes to separate the plasma. The concentration of the test compound was measured by a thin layer cup method (a bio-assay), wherein Bacillus subtilis ATCC 6633 was used as a bacteria for determination. Based on a standard curve, the concentration of test compound in plasma was calculated.
molecule,measurement,setting,value
"6,8-Difluoro-1-(4-fluorophenyl)-7-(1-piperazinyl)-1,4-dihydro-4-oxoquinoline-3-carboxylic acid [Test Compd. No. 2]",minimum inhibitory concentration (MIC),[1]; 1 × 10^8 cells/ml,6.25
same,minimum inhibitory concentration (MIC),[2]; 1 × 10^6 cells/ml,0.195
same,minimum inhibitory concentration (MIC),[2]; 1 × 10^8 cells/ml,0.195
same,minimum inhibitory concentration (MIC),[3]; 1 × 10^6 cells/ml,1.56
same,minimum inhibitory concentration (MIC),[3]; 1 × 10^8 cells/ml,3.12
same,minimum inhibitory concentration (MIC),[4]; 1 × 10^6 cells/ml,1.56
same,minimum inhibitory concentration (MIC),[4]; 1 × 10^8 cells/ml,1.56
same,minimum inhibitory concentration (MIC),[5]; 1 × 10^6 cells/ml,0.781
same,minimum inhibitory concentration (MIC),[5]; 1 × 10^8 cells/ml,1.56
same,minimum inhibitory concentration (MIC),[6]; 1 × 10^6 cells/ml,0.39
same,minimum inhibitory concentration (MIC),[6]; 1 × 10^8 cells/ml,0.781
same,minimum inhibitory concentration (MIC),[7]; 1 × 10^6 cells/ml,0.097
same,minimum inhibitory concentration (MIC),[7]; 1 × 10^8 cells/ml,0.195
same,minimum inhibitory concentration (MIC),[8]; 1 × 10^6 cells/ml,0.097
same,minimum inhibitory concentration (MIC),[8]; 1 × 10^8 cells/ml,0.195
same,minimum inhibitory concentration (MIC),Escherichia coli No. 29; 1 × 10^6 cells/ml,< 0.048
same,minimum inhibitory concentration (MIC),Escherichia coli No. 29; 1 × 10^8 cells/ml,< 0.048
same,minimum inhibitory concentration (MIC),[9]; 1 × 10^6 cells/ml,1.56
same,minimum inhibitory concentration (MIC),[9]; 1 × 10^8 cells/ml,1.56
same,minimum inhibitory concentration (MIC),[10]; 1 × 10^6 cells/ml,0.781
same,minimum inhibitory concentration (MIC),[10]; 1 × 10^8 cells/ml,1.56
same,minimum inhibitory concentration (MIC),[11]; 1 × 10^6 cells/ml,< 0.048
same,minimum inhibitory concentration (MIC),[11]; 1 × 10^8 cells/ml,< 0.048
same,minimum inhibitory concentration (MIC),[12]; 1 × 10^6 cells/ml,0.781
same,minimum inhibitory concentration (MIC),[12]; 1 × 10^8 cells/ml,1.56
"6,8-Difluoro-1-(4-hydroxyphenyl)-7-(1-piperazinyl)-1,4-dihydro-4-oxoquinoline-3-carboxylic acid [Example 2]",minimum inhibitory concentration (MIC),[1]; 1 × 10^8 cells/ml,12.5
same,minimum inhibitory concentration (MIC),[2]; 1 × 10^6 cells/ml,0.195
same,minimum inhibitory concentration (MIC),[2]; 1 × 10^8 cells/ml,0.39
same,minimum inhibitory concentration (MIC),[3]; 1 × 10^6 cells/ml,0.195
same,minimum inhibitory concentration (MIC),[3]; 1 × 10^8 cells/ml,0.39
same,minimum inhibitory concentration (MIC),[4]; 1 × 10^6 cells/ml,0.781
same,minimum inhibitory concentration (MIC),[4]; 1 × 10^8 cells/ml,1.56
same,minimum inhibitory concentration (MIC),[5]; 1 × 10^6 cells/ml,0.195
same,minimum inhibitory concentration (MIC),[5]; 1 × 10^8 cells/ml,0.39
same,minimum inhibitory concentration (MIC),[6]; 1 × 10^6 cells/ml,0.097
same,minimum inhibitory concentration (MIC),[6]; 1 × 10^8 cells/ml,0.195
same,minimum inhibitory concentration (MIC),[7]; 1 × 10^6 cells/ml,0.097
same,minimum inhibitory concentration (MIC),[7]; 1 × 10^8 cells/ml,0.195
same,minimum inhibitory concentration (MIC),[8]; 1 × 10^6 cells/ml,< 0.048
same,minimum inhibitory concentration (MIC),[8]; 1 × 10^8 cells/ml,< 0.048
same,minimum inhibitory concentration (MIC),Escherichia coli No. 29; 1 × 10^6 cells/ml,< 0.048
same,minimum inhibitory concentration (MIC),Escherichia coli No. 29; 1 × 10^8 cells/ml,< 0.048
same,minimum inhibitory concentration (MIC),[9]; 1 × 10^6 cells/ml,0.781
same,minimum inhibitory concentration (MIC),[9]; 1 × 10^8 cells/ml,1.56
same,minimum inhibitory concentration (MIC),[10]; 1 × 10^6 cells/ml,3.12
same,minimum inhibitory concentration (MIC),[10]; 1 × 10^8 cells/ml,6.25
same,minimum inhibitory concentration (MIC),[11]; 1 × 10^6 cells/ml,< 0.048
same,minimum inhibitory concentration (MIC),[11]; 1 × 10^8 cells/ml,< 0.048
same,minimum inhibitory concentration (MIC),[12]; 1 × 10^6 cells/ml,0.048
same,minimum inhibitory concentration (MIC),[12]; 1 × 10^8 cells/ml,0.097
"CN1CCN(c2c(F)cc3c(=O)c(C(=O)O)cn(-c4ccc(O)cc4)c3c2F)CC1 [Test Compd. No. 1, 6,8-Difluoro-1-(4-hydroxyphenyl)-7-(4-methyl-1-piperazinyl)-1,4-dihydro-4-oxoquinoline-3-carboxylic acid]",minimum inhibitory concentration (MIC),[1]; 1 × 10^6 cells/ml,0.39
same,minimum inhibitory concentration (MIC),[1]; 1 × 10^8 cells/ml,0.781
same,minimum inhibitory concentration (MIC),[2]; 1 × 10^6 cells/ml,< 0.048
same,minimum inhibitory concentration (MIC),[2]; 1 × 10^8 cells/ml,< 0.048
same,minimum inhibitory concentration (MIC),[3]; 1 × 10^6 cells/ml,0.097
same,minimum inhibitory concentration (MIC),[3]; 1 × 10^8 cells/ml,0.195
same,minimum inhibitory concentration (MIC),[4]; 1 × 10^6 cells/ml,0.097
same,minimum inhibitory concentration (MIC),[4]; 1 × 10^8 cells/ml,0.195
same,minimum inhibitory concentration (MIC),[5]; 1 × 10^6 cells/ml,< 0.048
same,minimum inhibitory concentration (MIC),[5]; 1 × 10^8 cells/ml,0.097
same,minimum inhibitory concentration (MIC),[6]; 1 × 10^6 cells/ml,< 0.048
same,minimum inhibitory concentration (MIC),[6]; 1 × 10^8 cells/ml,< 0.048
same,minimum inhibitory concentration (MIC),[7]; 1 × 10^6 cells/ml,< 0.048
same,minimum inhibitory concentration (MIC),[7]; 1 × 10^8 cells/ml,< 0.048
same,minimum inhibitory concentration (MIC),[8]; 1 × 10^6 cells/ml,< 0.048
same,minimum inhibitory concentration (MIC),[8]; 1 × 10^8 cells/ml,< 0.048
same,minimum inhibitory concentration (MIC),Escherichia coli No. 29; 1 × 10^6 cells/ml,< 0.048
same,minimum inhibitory concentration (MIC),Escherichia coli No. 29; 1 × 10^8 cells/ml,< 0.048
same,minimum inhibitory concentration (MIC),[9]; 1 × 10^6 cells/ml,0.195
same,minimum inhibitory concentration (MIC),[9]; 1 × 10^8 cells/ml,0.39
same,minimum inhibitory concentration (MIC),[10]; 1 × 10^6 cells/ml,0.097
same,minimum inhibitory concentration (MIC),[10]; 1 × 10^8 cells/ml,0.195
same,minimum inhibitory concentration (MIC),[11]; 1 × 10^6 cells/ml,< 0.048
same,minimum inhibitory concentration (MIC),[11]; 1 × 10^8 cells/ml,< 0.048
same,minimum inhibitory concentration (MIC),[12]; 1 × 10^6 cells/ml,< 0.048
same,minimum inhibitory concentration (MIC),[12]; 1 × 10^8 cells/ml,0.097
same,concentration at 0.5 h,"[13]; Run 1, 0.5 hour, read-out: Amount of test compd. in plasma",2350 ng/mL
same,concentration at 1 h,"[13]; Run 1, 1 hour, read-out: Amount of test compd. in plasma",4260 ng/mL
same,concentration at 2 h,"[13]; Run 1, 2 hour, read-out: Amount of test compd. in plasma",1940 ng/mL
same,concentration at 4 h,"[13]; Run 1, 4 hour, read-out: Amount of test compd. in plasma",720 ng/mL
same,concentration at 7 h,"[13]; Run 1, 7 hour, read-out: Amount of test compd. in plasma",< 200 ng/mL
same,concentration at 24 h,"[13]; Run 1, 24 hour, read-out: Amount of test compd. in plasma",< 200 ng/mL
same,concentration at 0.5 h,"[13]; Run 2, 0.5 hour, read-out: Amount of test compd. in plasma",< 200 ng/mL
same,concentration at 1 h,"[13]; Run 2, 1 hour, read-out: Amount of test compd. in plasma",2180 ng/mL
same,concentration at 2 h,"[13]; Run 2, 2 hour, read-out: Amount of test compd. in plasma",1120 ng/mL
same,concentration at 4 h,"[13]; Run 2, 4 hour, read-out: Amount of test compd. in plasma",1120 ng/mL
same,concentration at 7 h,"[13]; Run 2, 7 hour, read-out: Amount of test compd. in plasma",< 200 ng/mL
same,concentration at 24 h,"[13]; Run 2, 24 hour, read-out: Amount of test compd. in plasma",< 200 ng/mL
same,concentration at 0.5 h,"[13]; average of two runs, 0.5 hour, read-out: Amount of test compd. in plasma, Average",< 1370 ng/mL
same,concentration at 1 h,"[13]; average of two runs, 1 hour, read-out: Amount of test compd. in plasma, Average",3220 ng/mL
same,concentration at 2 h,"[13]; average of two runs, 2 hour, read-out: Amount of test compd. in plasma, Average",1530 ng/mL
same,concentration at 4 h,"[13]; average of two runs, 4 hour, read-out: Amount of test compd. in plasma, Average",920 ng/mL
same,concentration at 7 h,"[13]; average of two runs, 7 hour, read-out: Amount of test compd. in plasma, Average",< 390 ng/mL
same,concentration at 24 h,"[13]; average of two runs, 24 hour, read-out: Amount of test compd. in plasma, Average",< 390 ng/mL

# From US4755513A, “Antimicrobial 1-substituted phenyl-4-oxoquinoline-3-carboxylic acid compounds” (Otsuka Pharmaceutical Company, Limited, priority 1985, dated 1988)
